Experimental data from patent US10150793B2, “Antagonists of CB1 receptor” (INSERM (Institut National de la Santé et de la Recherche …, priority 2011, dated 2018).

Assays:
TNF-α = assay: Increase in plasma TNF-alpha induced by LPS; assay type: in vivo, mice; conditions: pregnenolone 6 mg/kg sc 30 min before LPS; measured 90 min after LPS
human CB1 receptor = biological target: T1, human CB1 receptor (Homo sapiens, UniProt P21554); assay: Radioligand binding of the CB1 agonist [3H]CP55,940 in CHO cells; conditions: pregnenolone 10^-12 to 10^-4 M
T1 construct: host or cells: CHO cells
Procedure: The binding assay for orthosteric binding of pregnenolone has been evaluated using Chinese hamster ovary (CHO) cells expressing the human CB1 receptor.
The CB1 binding of pregnenolone has been evaluated by the affinity of pregnenolone for the agonist site of the human CB1 cannabinoid receptor expressed in CHO cells, determined in a radioligand binding assay of the CB1 agonist [3H] CP 55940. The experiments were performed by CEREP France, using the standard procedures of this provider.

AMPA receptors = assay: AMPAR-mediated mEPSC in nucleus accumbens principal neurons; assay type: cell-based, mouse; conditions: pregnenolone 100 nM treated slices
[1] = Plasmatic levels of pregnenolone and allopregnanolone after subcutaneous injection or Alzet minipumps; assay type: in vivo, mice
Procedure: Micro-osmotic pumps (Alzet Osmotis Pumps, Charles River, France) with a pump rate of 0.15 μl/hr (model 2006) were filled with pregnenolone dissolved in PEG300 (85%) and ethanol (15%) at a concentration of 125 or 250 mg/ml (corresponding respectively to a daily dose of 12 or 24 mg/kg body weight) and implanted subcutaneously after light anesthesia. All pumps were primed by soaking them in saline at 37° C. for 60 h before implantation.
The effects of pregnenolone administration on plasmatic levels of pregnenolone were compared (n=5 per group) when pregnenolone was administered subcutaneously (6 mg/kg) or by Alzet micro-osmotic pumps (Alzet Osmotis Pumps, Charles River, France, model 2006) that simulate an extended release formulations of pregnenolone. Thus, these mini pump implanted subcutaneously provide a steady release of pregnenolone. Two pregneolone concentrations were used 0.6 mg/kg/hour and 1 mg/kg/hour (10 times and six times lower than the dose administered subcutaneously). […] The half life of pregnenolone administered subcutaneously was quite short (half an hour) and the increase in allopregnanolone was maintained over one hour (FIG. 20). […] Also pregnenolone levels remained in the range of effective therapeutic doses over two weeks.

CB1 receptor [2] = biological target: T2, CB1 receptor (Mus musculus, UniProt P47746); assay: THC inhibition of fEPSP in nucleus accumbens slices; assay type: cell-based, mice; design: from tissue; host or cells: acute brain slices, nucleus accumbens; conditions: slices pre-incubated with pregnenolone 100 nM
Procedure: Animals were deeply anesthetized with Isoflourane and transcardially perfused with a sucrose-based physiological solution at 4° C. (in mM: 23 NaHCO3, 70 Choline Cl, 75 Sucrose, 25 Glucose, 2.5 KCl, 1.25 NaH2PO4, 7 MgCl2 and 0.5 CaCl2). The brain was removed and sliced (250-300 μm) in the coronal plane using a vibratome (Campden Instruments, Loughborough, UK). During the slicing process, the brain was maintained in the sucrose-based solution. Immediately after cutting, slices were stored at 32° C. for 40 minutes in a low-calcium artificial cerebrospinal fluid (low-Ca^2+ ACSF) that contained (in mM): 23 NaHCO3, 120 NaCl, 11 Glucose, 2.5 KCl, 1.2 NaH2PO4, 2.4 MgCl2, 1.2 CaCl2. Slices were then stored in low-Ca^2+ ACSF at room temperature until recording.
For fEPSPs, extracellular glass recording and stimulating electrodes were filled with ACSF. Synaptic potentials were evoked by means of two electric stimuli (0.1-0.25 mA, 200 μsec duration) delivered at 20 Hz every 10 seconds. Stimulating electrode was placed at a distance>150 μm in the dorsomedial direction from the recoding electrode.
In order to test the effect of pregnenolone on a wider range of THC concentrations, we recorded fEPSP in NAc slices. Due to the possibility to achieved stable fEPSP measurements for several hours, this technique is ideally suited to perform dose-response curves and has previously been used to address CB1 receptor function (Robbe et al., 2001; Mato et al., 2004). Thus, AMPAR-mediated evoked fEPSP were recorded by electrically stimulating local axons.

CB1 receptor [3] = biological target: T2, CB1 receptor; assay: Food intake in 24 h-food deprived mice (fasting/refeeding); assay type: in vivo, C57B1/6 mice; design: tissue Charles River Laboratories (France) (animals); host or cells: living mice, whole animal; conditions: for effect on food intake in 24 h-food deprived mice: food intake over 1 h
[4] = Alzet minipump at 0.6 mg/kg/hour

T2 sequence (P47746 whole entry, the tested form may be a part): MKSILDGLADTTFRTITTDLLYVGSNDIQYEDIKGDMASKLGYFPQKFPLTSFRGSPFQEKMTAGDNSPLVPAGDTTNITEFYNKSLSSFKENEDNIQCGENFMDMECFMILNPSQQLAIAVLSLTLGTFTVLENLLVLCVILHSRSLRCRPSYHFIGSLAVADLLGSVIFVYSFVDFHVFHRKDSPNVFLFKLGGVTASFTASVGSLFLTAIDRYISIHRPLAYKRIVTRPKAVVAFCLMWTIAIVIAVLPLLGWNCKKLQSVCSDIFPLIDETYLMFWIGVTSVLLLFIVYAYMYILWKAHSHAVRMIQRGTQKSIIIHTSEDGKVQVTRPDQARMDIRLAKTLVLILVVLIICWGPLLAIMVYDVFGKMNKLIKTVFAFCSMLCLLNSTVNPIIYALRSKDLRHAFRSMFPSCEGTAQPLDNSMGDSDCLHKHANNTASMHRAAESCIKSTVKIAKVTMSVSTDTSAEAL
T1 sequence (P21554 whole entry): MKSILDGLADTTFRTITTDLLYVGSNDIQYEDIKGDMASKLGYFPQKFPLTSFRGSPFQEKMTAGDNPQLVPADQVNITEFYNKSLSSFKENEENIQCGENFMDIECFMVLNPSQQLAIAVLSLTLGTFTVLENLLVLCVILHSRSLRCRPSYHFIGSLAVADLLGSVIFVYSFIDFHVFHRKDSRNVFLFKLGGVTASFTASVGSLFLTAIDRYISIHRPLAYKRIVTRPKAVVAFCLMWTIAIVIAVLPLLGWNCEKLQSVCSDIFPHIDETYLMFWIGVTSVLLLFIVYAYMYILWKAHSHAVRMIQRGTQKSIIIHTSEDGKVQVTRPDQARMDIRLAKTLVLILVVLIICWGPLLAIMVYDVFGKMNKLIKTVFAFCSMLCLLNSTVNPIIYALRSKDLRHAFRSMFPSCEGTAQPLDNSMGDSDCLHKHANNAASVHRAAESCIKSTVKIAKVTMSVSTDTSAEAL

## CC(=O)[C@H]1CC[C@H]2[C@@H]3CC=C4C[C@@H](O)CC[C@]4(C)[C@H]3CC[C@]12C [Pregnenolone, 5-Pregnen-3β-ol-20-one]
TNF-α
  effect on increase in TNF-alpha induced by LPS: halved the increase in TNF-alpha
Human CB1 receptor
  orthosteric binding of the CB1 agonist [3H]CP55,940: did not modify the specific binding
Human CB1 receptor; listed as pregnenolone
  orthosteric binding of the CB1 agonist [3H]CP55,940: did not displace the orthosteric binding
AMPA receptors
  AMPAR-mediated mEPSC amplitude: 15.7±0.7 pA
  AMPAR-mediated mEPSC decay time: 4.62 ± 0.06 ms
[1]; [4]
  plasma allopregnanolone: did not increased allopregnanolone
  plasmatic pregnenolone: increased in the range of the maximum increase observed after the subcutaneous injection
[1]; Alzet minipump at 1 mg/kg/hour
  plasma allopregnanolone: allopregnanolone did not increase
  pregnenolone plasmatic concentrations: at the double of what observed after 6 mg/kg
[1]; administered subcutaneously
  half life: half an hour
[1]; mouse, in vivo
  half-life: approximately 30 min
[1]; pregnenolone subcutaneously at 6 mg/kg
  plasma allopregnanolone: induced an increase in allopregnanolone
[1]; subcutaneous injection
  duration of the increase in pregnenolone levels: < 1 h
[1]; subcutaneously at 6 mg/kg
  plasmatic levels of pregnenolone: around 100 ng/ml
CB1 receptor [2]; THC 10 μM
  inhibition of fEPSP by THC: 11.1±3.2%
CB1 receptor [2]; THC 20 μM
  inhibition of fEPSP by THC: 22.7±2.7%
CB1 receptor [2]; THC 40 μM
  inhibition of fEPSP by THC: 34.6±3.1%
CB1 receptor [3]; food-deprived (food-restricted) mice, no THC
  first statistically significant dose for decrease of food intake: 6 mg/kg
CB1 receptor [3]; no THC
  effect on food intake in 24 h-food deprived mice: dose-dependently decreased food intake
CB1 receptor [3]; no THC, listed as pregnenolone
  effect on food intake in 24 h-food deprived mice: dose dependently decreased food intake
CB1 receptor [3]; pregnenolone
  effect on food intake over 24 hours in fasting/refeeding model: no significant effect was seen over 24 hours
